Common to all, as to assay: NCI-60 cell line screen, 48 h
Assay [1] deals with MDA-MB-231 breast.
Assay [2] concerns MCF7 breast.
Assay [3] has as its system HS 578T breast.
In assay [4] the test system is HL-60(TB) leukemia.
In assay [5] the test system is NCI/ADR-RES ovarian.
Assay [6] relates to DMS 273 small cell lung.
Assay [7] deals with DMS 114 small cell lung.
Assay [8] deals with KM20L2 colon.
The subject of assay [9] is SNB-78 CNS.
Assay [10] concerns RXF-631 renal.

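In this assay, cells in 96-well plates receive the compound at five concentrations for 48 hours. Endpoints are linearly interpolated between the surrounding concentrations. GI50 is the concentration that inhibits growth by half. TGI denotes the concentration required for complete inhibition of growth.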 Bounds are passed on as bounds.

Consider `COc1cc(C(=O)O[C@H](C(N)=O)[C@]2(C)CO2)c2ccccc2c1`, for which the GI50 is 13 µM in assay [1]; 27.3 µM in [2]; 16.6 µM in [3]; 40.9 µM in assay [4]; 12.3 µM in assay [5]. The TGI was 27.7 µM in [1]; over 100 µM in [2]; 41 µM in [3]; over 100 µM in assay [4]; 30.3 µM in assay [5].

Regarding `COc1ccc(C(=O)/C=C/c2cccnc2Nc2cc(OC)c(OC)c(OC)c2)cc1`, the GI50 in [1] is 2.67 µM; in [2] it was 0.106 µM; in [3], 5.31 µM; in assay [4], 1.27 µM; in [5] it was 1 µM. For the same molecule, the TGI in assay [1] amounted to 12.4 µM; in assay [2], 11 µM; in assay [3] it was 38.6 µM; in assay [4], 4.01 µM; in assay [5], 6.29 µM.

Take `NCCCCn1c2c(c3ccccc3c1=O)C(=O)c1ccccc1-2`: the GI50 in assay [1] is 0.23 µM; in [2] it was under 0.0359 µM; in assay [3], 0.538 µM; in [4], 0.0382 µM; in assay [5] it was 0.709 µM. The TGI in [1] stood at 0.848 µM; in assay [3], 4.75 µM; in assay [4] it was 0.0919 µM; in assay [5] it was 2.54 µM.

With `O=C(/C=C/c1ccccc1Cl)c1ccccc1Cl`, the TGI stood at 31.1 µM in assay [6]; 34.8 µM in [7]; 47.1 µM in assay [4]; 33.3 µM in assay [8]; 69.2 µM in [9].

Turning to `COC(=O)C1=C(c2ccc3c(c2)OCO3)O[C@H](c2ccc3c(c2)OCO3)[C@H]1COC(C)=O`, the TGI in assay [6], in [7], in assay [4], in assay [8] and in assay [9] was over 100 µM each time.

As for `CC(C)(C)C1=CC(=CC=C2C=CN(CCCCCCCCCCCO)C=C2)C=C(C(C)(C)C)C1=O`, the TGI in [1] is 3.28 µM; in [2], 1.23 µM; in assay [3], 4.23 µM; in assay [4] it was 3.71 µM; in assay [5], 11.7 µM.

Turning to `O=C1C2=C(CC3C(C2)C3(Br)Br)C(=O)C2=C1CC1C(C2)C1(Br)Br` (stereo unspecified), the TGI in [6], in [10], in [4], in assay [8] and in [9] was over 100 µM each time.

With `COc1cc([N+](=O)[O-])ccc1NC(=O)C(F)(F)F`, the TGI in assay [1], in [2], in [3], in [4] and in [5] was over 100 µM each time.

With `N#CCCN(CCC#N)c1ccc(/C=C2\N=C(CN3C(=O)c4ccccc4C3=O)OC2=O)cc1`, the TGI in [6], in [7], in [10], in [4] and in assay [8] was over 100 µM throughout.

Regarding `CC12CCCC(CC(=O)c3[nH]c4ccccc4c31)C2` (stereo unspecified), the GI50 is 3.26 µM in [1]; 0.4 µM in assay [2]; 0.936 µM in assay [3]; 0.34 µM in assay [4]; 0.439 µM in [5]. For the same molecule, the TGI is 43.1 µM in [1]; over 56.7 µM in assay [2]; 37.8 µM in assay [3]; 3.94 µM in assay [4]; 6.96 µM in assay [5].

Turning to `CN(C)C(=S)/N=c1\ss/c(=N\C(=S)N(C)C)n1-c1ccc2c(c1)OCO2`, the TGI in assay [6], in assay [7], in assay [4] and in assay [8] was over 100 µM each time.

In the case of `O=[N+]([O-])c1ccc2nnnn2c1`, the TGI in assay [1] was 96.4 µM; in assay [2], over 100 µM; in [3], over 100 µM; in assay [4], 74.6 µM; in [5] it was over 100 µM.

With `COc1cc(Cn2c(-c3ccccc3)cc3c2-c2oncc2CC3)cc(OC)c1OC`, the GI50 in [1] was 2.82 µM; in assay [2], 0.443 µM; in assay [3], 0.51 µM; in assay [4], 0.32 µM; in [5], 0.328 µM. In addition, the TGI in assay [1] is over 100 µM; in assay [2], 22.3 µM; in [3], over 100 µM; in assay [4] it was 1.36 µM; in assay [5], over 100 µM.

`COC(=O)[C@]12CCC(C)(C)C[C@H]1C1=CC[C@@H]3[C@@]4(C)C/C(=C/c5cccnc5)C(=O)C(C)(C)[C@@H]4CC[C@@]3(C)[C@]1(C)CC2`: the GI50 in [1] was 10.2 µM; in [2], 3 µM; in assay [3], 22.7 µM; in assay [4], 2.06 µM; in assay [5], 6.75 µM. The TGI in [1] was 32.2 µM; in [2] it was 14.7 µM; in assay [3], over 100 µM; in [4] it was 5.2 µM; in assay [5], 32.5 µM.

For `COc1ccc(-c2nc(-c3nc4ccc(C)cc4[nH]3)c3ccccn23)cc1`, the GI50 in assay [1] is 3.09 µM; in assay [2], 2.7 µM; in assay [3] it was 2.17 µM; in assay [4], 2.58 µM; in assay [5], 2.71 µM. The TGI in [1] is over 100 µM; in [2], over 100 µM; in assay [3] it was 6.05 µM; in assay [4], 6.53 µM; in [5] it was 8.06 µM.

As to `COc1cccc(NCc2nnc(Nc3ccc(Cl)cc3)c3ccccc23)c1`, the GI50 in assay [1] is 1.32 µM; in [2] it was 0.938 µM; in [3] it was 2.9 µM; in [4] it was 3.78 µM; in assay [5], 2.55 µM. In addition, the TGI turned out to be 6.32 µM in assay [1]; 6.4 µM in [2]; 11.5 µM in assay [3]; 13.1 µM in assay [4]; 25 µM in assay [5].

With `O=c1[nH]c(=O)n(C2CC(O)C(CS)O2)cc1F` (stereo unspecified), the TGI is over 100 µM in [1]; over 43.5 µM in [2]; over 100 µM in assay [7]; over 100 µM in assay [3]; over 100 µM in assay [4]; over 100 µM in assay [8]. Also, the TGI was over 11.7 µM in assay [5] and over 100 µM in assay [9].
